{"source": "patent US10774084B2", "about": "“Adenine derivatives and their use as UV-photoprotective agents” (UNIVERZITA PALACKEHO V OLOMOUCI, priority 2015, dated 2020)", "system": "caspase-3 activity", "experiment": "UVB-induced caspase-3 activity in NHDF (Ac-DEVD-AMC)", "format": "cell-based, human", "from_the_text": "Normal human dermal fibroblasts (NHDF) were used as an in vitro model. Cells were isolated from tissue specimens obtained from healthy patients undergoing plastic surgery at the Department of Plastic and Aesthetic Surgery (University Hospital Olomouc). The use of skin tissue was in accordance with the Ethics Committee of the University Hospital and Faculty of Medicine and Dentistry, Palacky University, Olomouc and all patients signed written informed consent. Fibroblasts were used between the 2nd and 4th passage. For all experiments the fibroblasts were seeded onto 6-well plates at a density of 0.5×10^5 cells/cm^2 of cultivation medium (DMEM supplemented with fetal calf serum (10%, v/v), penicillin (100 mg/ml) and streptomycin (100 U/ml)).\nTest compounds included 6-(tetrahydrofuran-2-ylmethylamino)-9-(tetrahydrofuran-2-yl)purine and positive control (rosmarinic acid). […] Intensity of UVB radiation was evaluated before each irradiation by UVB-meter. […] After 4 hours (37° C., 5% CO2) cell damage was evaluated by analysis of caspase-3 activity.\nCaspase-3 activity was evaluated by specific substrate (Ac-DEVD-AMC). […] Fluorescence was measured at (400/505 nm) after 1 hour incubation (37° C., dark). Protein content was analyzed spectrophotometrically by Bradford protein assay (INFINITE M200, Tecan, Switzerland). […]", "data": [{"smiles": "c1nc(NCC2CCCO2)c2ncn(C3CCCO3)c2n1", "note": "(centres unmarked) [Compound 1, 6-(tetrahydrofuran-2-ylmethylamino)-9-(tetrahydrofuran-2-yl)purine]", "values": [{"measurement": "effect on UVB-induced activity of caspase-3 (in words)", "setting": "UVB, NHDF", "value": "decreased"}, {"measurement": "effect on caspase-3 activity in non-irradiated cells (in words)", "setting": "non-irradiated NHDF, 2.5-20 μmol/l", "value": "did not showed negative effect"}]}]}
